Laboratory results published in patent US8394969B2, “Cyclic benzimidazole derivatives useful as anti-diabetic agents” (Merck Sharp & Dohme Corp., priority 2008, dated 2013).
Structures can show the parent of a compound that is named as a salt.

What follows are compounds tested against recombinant human AMPK complex 1 (containing α1β1γ1) (Homo sapiens, UniProt Q13131+Q9Y478) (assay: […] (in vitro AMPK activation assay)). Conditions: recombinant human AMPK complex 1 (α1β1γ1); basal activity subtracted; read-out: % Maximum AMP Activation of human AMPK Complex 1.
Sequence of recombinant human AMPK complex 1 (containing α1β1γ1) (Q13131 whole entry): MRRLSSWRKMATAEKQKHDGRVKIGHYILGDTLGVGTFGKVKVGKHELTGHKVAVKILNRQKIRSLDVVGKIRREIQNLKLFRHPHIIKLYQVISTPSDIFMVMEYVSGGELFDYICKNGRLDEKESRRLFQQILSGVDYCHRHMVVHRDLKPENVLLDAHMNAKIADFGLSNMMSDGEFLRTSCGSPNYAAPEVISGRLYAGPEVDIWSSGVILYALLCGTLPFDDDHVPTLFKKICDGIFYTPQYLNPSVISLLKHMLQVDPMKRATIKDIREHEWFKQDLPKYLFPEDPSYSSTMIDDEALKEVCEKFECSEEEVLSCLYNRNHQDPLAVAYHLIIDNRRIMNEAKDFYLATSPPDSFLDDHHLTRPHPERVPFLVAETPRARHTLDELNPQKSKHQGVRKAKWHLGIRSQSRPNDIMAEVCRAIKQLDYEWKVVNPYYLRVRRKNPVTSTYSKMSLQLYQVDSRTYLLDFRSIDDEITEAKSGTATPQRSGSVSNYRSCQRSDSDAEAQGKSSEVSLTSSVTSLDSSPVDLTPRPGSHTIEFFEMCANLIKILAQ
Sequence of recombinant human AMPK complex 1 (containing α1β1γ1) (Q9Y478 whole entry): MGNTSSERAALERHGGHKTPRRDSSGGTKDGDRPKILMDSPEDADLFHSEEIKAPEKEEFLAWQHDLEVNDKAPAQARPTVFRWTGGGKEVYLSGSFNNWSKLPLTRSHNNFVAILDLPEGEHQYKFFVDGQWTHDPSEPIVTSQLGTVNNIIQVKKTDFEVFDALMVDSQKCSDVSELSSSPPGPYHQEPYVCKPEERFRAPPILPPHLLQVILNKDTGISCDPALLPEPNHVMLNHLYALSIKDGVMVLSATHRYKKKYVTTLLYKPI
Sequence of recombinant human AMPK complex 1 (containing α1β1γ1) (P54619 whole entry partner): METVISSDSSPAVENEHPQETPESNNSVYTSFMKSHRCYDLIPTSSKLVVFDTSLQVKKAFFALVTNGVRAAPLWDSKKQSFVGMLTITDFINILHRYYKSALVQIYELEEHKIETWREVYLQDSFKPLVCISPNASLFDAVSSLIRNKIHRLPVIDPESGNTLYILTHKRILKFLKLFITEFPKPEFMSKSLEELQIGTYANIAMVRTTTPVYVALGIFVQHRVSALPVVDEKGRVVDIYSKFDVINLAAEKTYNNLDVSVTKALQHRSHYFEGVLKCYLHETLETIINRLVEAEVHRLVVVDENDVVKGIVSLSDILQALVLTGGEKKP
Type: biochemical
Work on CCN1CCc2cc(-c3cc4nc(Oc5ccc(C)c(C(=O)O)c5)[nH]c4cc3Cl)ccc21 [Example 276, 5-[6-Chloro-5-(1-ethyl-2,3-dihydro-1H-indol-5-yl)-1H-benzoimidazol-2-yloxy]-2-methyl-benzoic acid] yielded an Emax greater than 80%.
Cc1ccc(Oc2nc3cc(-c4ccc5c(c4)cc(-c4ccccc4)n5C)c(Cl)cc3[nH]2)cc1C(=O)O [Example 277, 5-[6-Chloro-5-(1-methyl-2-phenyl-1H-indol-5-yl)-1H-benzoimidazol-2-yloxy]-2-methyl-benzoic acid] showed an Emax greater than 80%.
Cc1ccc(Oc2nc3cc(-c4ccc5[nH]c(-c6ccccc6)cc5c4)c(Cl)cc3[nH]2)cc1C(=O)O [Example 278, 5-[6-Chloro-5-(2-phenyl-1H-indol-5-yl)-1H-benzoimidazol-2-yloxy]-2-methyl-benzoic acid] was tested, and the Emax was greater than 80%.
Cc1ccc(Oc2nc3cc(-c4ccc5c(c4)CCN5C(C)C)c(Cl)cc3[nH]2)cc1C(=O)O [Example 279, 5-[6-Chloro-5-(1-isopropyl-2,3-dihydro-1H-indol-5-yl)-1H-benzoimidazol-2-yloxy]-2-methyl-benzoic acid] gave an Emax greater than 80%.
In the case of Cc1ccc(Oc2nc3cc(-c4ccc5cnccc5c4)c(Cl)cc3[nH]2)cc1C(=O)O [Example 280, 5-(6-Chloro-5-isoquinolin-6-yl-1H-benzoimidazol-2-yloxy)-2-methyl-benzoic acid], the Emax is reported as greater than 80%.
For Cc1ccc(Oc2nc3cc(-c4ccc5c(c4)c4c(n5C)CCC4)c(Cl)cc3[nH]2)cc1C(=O)O [Example 281, 5-[6-Chloro-5-(4-methyl-1,2,3,4-tetrahydro-cyclopenta[b]indol-7-yl)-1H-benzoimidazol-2-yloxy]-2-methyl-benzoic acid], the Emax was greater than 80%.
For Cc1ccc(Oc2nc3cc(-c4ccc5c(c4)CCN5C)c(Cl)cc3[nH]2)cc1C(=O)O [Example 282, 5-[6-Chloro-5-(1-methyl-2,3-dihydro-1H-indol-5-yl)-1H-benzoimidazol-2-yloxy]-2-methyl-benzoic acid], the Emax was greater than 80%.
Cc1ccc(Oc2nc3cc(-c4cccc5c4ccn5C)c(Cl)cc3[nH]2)cc1C(=O)O [Example 283, 5-[6-Chloro-5-(1-methyl-1H-indol-4-yl)-1H-benzoimidazol-2-yloxy]-2-methyl-benzoic acid] gave an Emax greater than 80%.
Compound Cc1ccc(Oc2nc3cc(-c4ccc5ccn(C)c5c4)c(Cl)cc3[nH]2)cc1C(=O)O [Example 284, 5-[6-Chloro-5-(1-methyl-1H-indol-6-yl)-1H-benzoimidazol-2-yloxy]-2-methyl-benzoic acid] has an Emax greater than 80%.
Cc1ccc(Oc2nc3cc(-c4ccc5c(c4)CCN5)c(Cl)cc3[nH]2)cc1C(=O)O [Example 285, 5-[6-Chloro-5-(2,3-dihydro-1H-indol-5-yl)-1H-benzoimidazol-2-yloxy]-2-methyl-benzoic acid] was tested, and the Emax was greater than 80%.
Cc1ccc(Oc2nc3cc(-c4ccc5[nH]cc(C)c5c4)c(Cl)cc3[nH]2)cc1C(=O)O [Example 287, 5-[6-Chloro-5-(3-methyl-1H-indol-5-yl)-1H-benzoimidazol-2-yloxy]-2-methyl-benzoic acid] was tested, and the Emax was greater than 80%.
Compound Cc1ccc(Oc2nc3cc(-c4ccc5c(c4)c(C)cn5C)c(Cl)cc3[nH]2)cc1C(=O)O [Example 288, 5-[6-Chloro-5-(1,3-dimethyl-1H-indol-5-yl)-1H-benzoimidazol-2-yloxy]-2-methyl-benzoic acid] has an Emax greater than 80%.
In the case of Cc1ccc(Oc2nc3cc(-c4ccc5c(c4)cc(C)n5C)c(Cl)cc3[nH]2)cc1C(=O)O [Example 289, 5-[6-Chloro-5-(1,2-dimethyl-1H-indol-5-yl)-1H-benzoimidazol-2-yloxy]-2-methyl-benzoic acid], the Emax is reported as greater than 80%.
Compound Cc1ccc(Oc2nc3cc(-c4ccc5c(C)cn(C(=O)OC(C)(C)C)c5c4)c(Cl)cc3[nH]2)cc1C(=O)O [Example 290, 6-[2-(3-Carboxy-4-methyl-phenoxy)-6-chloro-1H-benzoimidazol-5-yl]-3-methyl-indole-1-carboxylic acid tert butyl ester] has an Emax greater than 80%.
For Cc1ccc(Oc2nc3cc(-c4ccc5c(C)c[nH]c5c4)c(Cl)cc3[nH]2)cc1C(=O)O [Example 291, 5-[6-Chloro-5-(3-methyl-1H-indol-6-yl)-1H-benzoimidazol-2-yloxy]-2-methyl-benzoic acid], the Emax was greater than 80%.
Cc1ccc(Oc2nc3cc(-c4ccc(C(C)N(C)C)cc4)c(Cl)cc3[nH]2)cc1C(=O)O (centres unmarked) [Example 292, 1-{4-[2-(3-carboxy-4-methylphenoxy)-6-chloro-1H-benzimidazol-5-yl]phenyl}-N,N-dimethylethanaminium trifluoroacetate] was tested, and the Emax was greater than 80%.
Work on Cc1ccc(Oc2nc3cc(-c4ccc(C(C)N)cc4)c(Cl)cc3[nH]2)cc1C(=O)O (centres unmarked) [Example 293, 1-{4-[2-(3-carboxy-4-methylphenoxy)-6-chloro-1H-benzimidazol-5-yl]phenyl}ethanaminium trifluoroacetate] yielded an Emax greater than 80%.
In the case of Cc1ccc(Oc2nc3cc(-c4ccc(CN(C)C)cc4)c(Cl)cc3[nH]2)cc1C(=O)O [Example 294, {4-[2-(3-carboxy-4-methylphenoxy)-6-chloro-1H-benzimidazol-5-yl]phenyl}-N,N-dimethylmethanaminium trifluoroacetate], the Emax is reported as greater than 80%.
Work on Cc1ccc(Oc2nc3cc(-c4ccc(N(C)C)c(C(F)(F)F)c4)c(Cl)cc3[nH]2)cc1C(=O)O [Example 295, 2-(3-carboxy-4-methylphenoxy)-6-chloro-5-[4-(dimethylamino)-3-(trifluoromethyl)phenyl]-1H-3,1-benzimidazol-3-ium chloride] yielded an Emax greater than 80%.
For Cc1ccc(Oc2nc3cc(-c4ccc(N(C)C)c(F)c4)c(Cl)cc3[nH]2)cc1C(=O)O [Example 296, 2-(3-carboxy-4-methylphenoxy)-6-chloro-5-[4-(dimethylamino)-3-fluorophenyl]-1H-3,1-benzimidazol-3-ium chloride], the Emax was greater than 80%.
Cc1ccc(Oc2nc3cc(-c4ccc(C(C)(C)N)cc4)c(Cl)cc3[nH]2)cc1C(=O)O [Example 297, 2-{4-[2-(3-carboxy-4-methylphenoxy)-6-chloro-1H-benzimidazol-5-yl]phenyl}propan-2-aminium trifluoroacetate] gave an Emax greater than 80%.
In the case of CC(=O)c1ccc2cc(-c3cc4nc(Oc5ccc(C)c(C(=O)O)c5)[nH]c4cc3Cl)ccc2c1 [Example 298, 5-[5-(6-Acetyl-naphthalen-2-yl)-6-chloro-1H-benzoimidazol-2-yloxy]-2-methyl-benzoic acid], the Emax is reported as greater than 80%.
Cc1ccc(Oc2nc3cc(-c4ccc5c(c4)CN(C(C)C)C5)c(Cl)cc3[nH]2)cc1C(=O)O [Example 299, 5-[2-(3-carboxy-4-methylphenoxy)-6-chloro-1H-benzimidazol-5-yl]-2-isopropyl-2,3-dihydro-1H-isoindolium trifluoroacetate] showed an Emax greater than 80%.
Work on Cc1ccc(Oc2nc3cc(-c4ccc5c(c4)CN(C)C5)c(Cl)cc3[nH]2)cc1C(=O)O [Example 300, 5-[2-(3-carboxy-4-methylphenoxy)-6-chloro-1H-benzimidazol-5-yl]-2-methyl-2,3-dihydro-1H-isoindolium trifluoroacetate] yielded an Emax greater than 80%.
Cc1ccc(Oc2nc3cc(-c4ccc5c(c4)CNC5)c(Cl)cc3[nH]2)cc1C(=O)O [Example 301, 5-[2-(3-carboxy-4-methylphenoxy)-6-chloro-1H-benzimidazol-5-yl]-2,3-dihydro-1H-isoindolium trifluoroacetate] showed an Emax greater than 80%.
Cc1ccc(Oc2nc3cc(-c4cccc(-c5ccccc5)c4)c(Cl)cc3[nH]2)cc1C(=O)O [Example 302, 5-(5-Biphenyl-3-yl-6-chloro-1H-benzoimidazol-2-yloxy)-2-methyl-benzoic acid] gave an Emax greater than 80%.
Cc1ccc(Oc2nc3cc(-c4ccc(-c5ccccc5)c(C)c4)c(Cl)cc3[nH]2)cc1C(=O)O [Example 303, 5-[6-Chloro-5-(2-methyl-biphenyl-4-yl)-1H-benzoimidazol-2-yloxy]-2-methyl-benzoic acid] showed an Emax greater than 80%.
Cc1ccc(Oc2nc3cc(-c4ccc5c(c4)CC(=O)N5C)c(Cl)cc3[nH]2)cc1C(=O)O [Example 304, 5-[6-Chloro-5-(1-methyl-2-oxo-2,3-dihydro-1H-indol-5-yl)-1H-benzoimidazol-2-yloxy]-2-methyl-benzoic acid] gave an Emax greater than 80%.
Cc1ccc(Oc2nc3cc(-c4ccc5c(c4)CNC5=O)c(Cl)cc3[nH]2)cc1C(=O)O [Example 305, 5-[6-Chloro-5-(1-oxo-2,3-dihydro-1H-isoindol-5-yl)-1H-benzoimidazol-2-yloxy]-2-methyl-benzoic acid] was tested, and the Emax was greater than 80%.
For CC(=O)N1CCc2cc(-c3cc4nc(Oc5ccc(C)c(C(=O)O)c5)[nH]c4cc3Cl)ccc21 [Example 306, 5-[5-(1-Acetyl-2,3-dihydro-1H-indol-5-yl)-6-chloro-1H-benzoimidazol-2-yloxy]-2-methyl-benzoic acid], the Emax was greater than 80%.
With Cc1ccc(Oc2nc3cc(-c4ccc5c(c4)CC(=O)N5)c(Cl)cc3[nH]2)cc1C(=O)O [Example 307, 5-[6-Chloro-5-(2-oxo-2,3-dihydro-1H-indol-5-yl)-1H-benzoimidazol-2-yloxy]-2-methyl-benzoic acid] the Emax was greater than 80%.
With Cc1ccc(Oc2nc3cc(-c4ccc5c(c4)OC(F)(F)O5)c(Cl)cc3[nH]2)cc1C(=O)O [Example 308, 5-[6-Chloro-5-(2,2-difluoro-benzo[1,3]dioxol-5-yl)-1H-benzoimidazol-2-yloxy]-2-methyl-benzoic acid] the Emax was greater than 80%.
Compound COc1ccc2cc(-c3cc4nc(Oc5ccc(Cl)c(C(=O)O)c5)[nH]c4cc3Cl)ccc2c1 [Example 309, 2-Chloro-5-[6-chloro-5-(6-methoxy-naphthalen-2-yl)-1H-benzoimidazol-2-yloxy]-benzoic acid] has an Emax greater than 80%.
Compound COc1ccc2cc(-c3cc4nc(Oc5cc(C)c(C)c(C(=O)O)c5)[nH]c4cc3Cl)ccc2c1 [Example 310, 5-[6-Chloro-5-(6-methoxy-naphthalen-2-yl)-1H-benzoimidazol-2-yloxy]-2,3-dimethyl-benzoic acid] has an Emax greater than 80%.
Compound Cc1cc(Oc2nc3cc(-c4ccc5c(ccn5C)c4)c(Cl)cc3[nH]2)cc(C(=O)O)c1C [Example 311, 5-[6-Chloro-5-(1-methyl-1H-indol-5-yl)-1H-benzoimidazol-2-yloxy]-2,3-dimethyl-benzoic acid] has an Emax greater than 80%.
